Laboratory results taken from ChEMBL document CHEMBL3507680, “University of Dundee, Gates Library screen for HepG2 cell viability”.

Experiment: Human HepG2 cell viability assay in 384 well format
Assay type: toxicity, cell-based
Design: dose 125 nL, time 70.5 hour; cytotoxicity at 70.5 h: concentration not given beside the values
Settings: HepG2 cells, read-out: Inhibition

Row | SMILES | cytotoxicity at 70.5 h [%]
1 | COCCO[C@H]1CCN(C(=O)c2ccc[nH]2)[C@H]1Cc1ccncc1 | -3.06
2 | COCC(=O)N1CC[C@H]2C[C@H](C)O[C@@H]2C1 | -7.04
3 | Cn1cccc1C(=O)N1CCc2ncnc(N3CCCC3)c2CC1 | -5.07
4 | CN(C)C(=O)N1C[C@H]2CN(Cc3cccc(F)c3)C(=O)[C@H]2C1 | -9.2
5 | COc1cc(N2CC[C@H](O)[C@@H]2Cc2cnn(C)c2)ncn1 | -13.3
6 | CCOCC1CN(C(=O)c2cscn2)Cc2nnn(CC3CC3)c21 (centres undefined) | -6.01
7 | O=C(C1CCOC1)N1C[C@H]2CN(Cc3ccccn3)C[C@H]2C1 (some centres undefined) | -18
8 | O=C(c1ncccn1)N1C[C@H]2CCC[C@@]2(COCC2CCOCC2)C1 | -15.9
9 | COc1ccc(CN2CCC3(CC2)CCN(c2ncccn2)CC3)cc1 | -6.69
10 | CN1CCN(Cc2ccoc2)Cc2cccnc21 | -4.02
11 | COCC(=O)N1CC[C@@H](N2CCOCC2)[C@@H]1Cc1ccccc1 | 4.62
12 | CCCN(CC)C(=O)c1cc2c(c3ccccc3n2C)n1C(=O)N(C)C | 4.9
13 | CC(=O)N1CCC2(CCN(C(=O)c3ccc(Cl)c(C(F)(F)F)c3)CC2)C1 | 1.62
14 | O=C(CCc1ccncc1)N1CCc2c(ncnc2N2CCOCC2)C1 | 31.1
15 | Cc1cccc(CN2CCC(n3cc(CCO)nn3)CC2)c1C | 2.7
16 | Fc1ccccc1CC1CCN(Cc2cscn2)CC1 | -4.53
17 | O=C(Cn1ncc(N2CCCC2)cc1=O)Nc1ccc2nccnc2c1 | -3.43
18 | O=C(CCC(F)(F)F)N1CCCC2(CCC(=O)N(CC3CC3)C2)C1 (centres undefined) | -15.8
19 | Cc1cc(C)c(C(=O)NC2CCCc3nc(N(C)C)ncc32)cc1C (centres undefined) | 23.6
20 | COc1ccc(CCN)cc1-c1ccc(C(N)=O)cc1 | -6.83
21 | CC(C)CN1CC(c2nc(C3CC3)n[nH]2)CC1=O (centres undefined) | -9.82
22 | COc1ccc2ncn(Cc3ncc[nH]3)c(=O)c2c1 | 2.5

Row | SMILES | cytotoxicity at 70.5 h [%]
23 | CN(Cc1ccccn1)C(=O)c1cc(CN2CCC(O)CC2)on1 | -16.8
24 | Cc1ccnc(CNC(=O)C2CC(=O)N(CCN(C)C)C2)c1 (centres undefined) | -7.06
25 | CN1C[C@@H]2CC[C@H](C1)N(Cc1ccccc1OCCN1CCOCC1)C2 | 1.83
26 | CCc1ccccc1OC1CN(C(=O)c2cccs2)C1 | 7.24
27 | COc1ccc(OC2CCN(C(=O)c3ccc(C(C)=O)s3)CC2)cc1 | -6.92
28 | CCC(=O)c1ccc(OCC(=O)N2CCNCC2C(=O)NC2CC2)cc1 (centres undefined) | -9.05
29 | Cc1cccc(-c2nc(N)nc3c2CN(C(=O)c2cc(C)n[nH]2)C3C)c1 (centres undefined) | -13.9
30 | O=C(c1ccccn1)N1C[C@@H]2CC[C@H](C1)N(C(=O)CCN1CCCC1)C2 | 38
31 | O=C(Cn1ccc2ncccc2c1=O)N1CCCCC1 | 13.3
32 | CCOC(=O)N1CCN(C(=O)Cn2ccc3ncccc3c2=O)CC1 | -8.19
33 | Cc1cc(N2CCCN(C(=O)Cc3cccnc3)CC2)ccn1 | -6.53
34 | Cn1cnnc1SCC(=O)NC1CC(=O)N(CCc2cccc(Cl)c2)C1 (centres undefined) | -7.55
35 | CC(C1CCN(Cc2ccc(N(C)C)nc2)CC1)N1CCOCC1 (centres undefined) | 8.61
36 | CC(C)CCn1cc(C(C(=O)O)N2CCC(c3ccncc3)CC2)cn1 (centres undefined) | 19.8
37 | CCCc1cc(C(=O)N2CCC3(CCCN(CCOC)C3=O)C2)cs1 (centres undefined) | -7.15
38 | Cc1cc(NCCCC(F)(F)F)n2nc(C)cc2n1 | -1.87
39 | O=C(CC(F)(F)F)N1C[C@H]2CC[C@@H]1CN(Cc1ccccc1)C2 | -3.61
40 | O=C1CCC2(CCN(CCSc3ccccc3)CC2)CN1CCCO | -1.81
41 | Cc1ccc(S(=O)(=O)N2CCC(Cn3cc(C(C)(C)N)nn3)CC2)s1 | -6.09
42 | CC(C)CN1CCn2nc(CNc3ncnc4[nH]cnc34)cc2C1 | 10.6
43 | Cc1cnc(N2CCC(c3ccccc3)CC2)nc1-c1ccnn1C | -6.13
44 | CC(=O)Nc1ccc(C(=O)Nc2cnc3n2CCCC3)c(C)c1 | -1.77

Row | SMILES | cytotoxicity at 70.5 h [%]
45 | O=C(c1cccc(F)c1)N1C[C@@H](CN2CCCCC2)[C@@H](CO)C1 | -7.48
46 | CC(C)[C@@H]1CN(Cc2cnc3c(S(C)(=O)=O)cnn3c2)C[C@H]1N(C)C | -7.81
47 | CN(C)CCNc1cc(-c2ncccn2)c2cc[nH]c2n1 | -6.11
48 | O=C(CNC(Cn1cccn1)c1ccccc1)Nc1cnccn1 (centres undefined) | 13
49 | CCC[C@@H]1CN(C(=O)c2conc2-c2ccccc2)C[C@H]1N(C)C | 0.694
50 | O=C(NCCCNc1cccnc1)c1ccc2nccn2c1 | -12.7
51 | Cc1cc(NCc2noc(C(C)C)n2)nc(-c2ccccc2)n1 | 12.1
52 | Cc1ncc(C)c(N2CCC(Cc3ccc(Cl)cc3)(C(=O)O)CC2)n1 | -9.85
53 | Cc1nc(C)c(CC(=O)N2C[C@@H](C(=O)O)[C@H](c3ccccc3C)C2)s1 | -17
54 | COCCN1CCC(CN(Cc2ccncc2)C2CCC2)CC1 | -6.79
55 | CCC[C@@H]1CN(C(=O)Cc2sc(C)nc2C)C[C@H]1C(=O)O | -5.07
56 | COCC1CCN(S(=O)(=O)N2C[C@@H](C)[C@](O)(C3CC3)C2)CC1 | -1.25
57 | CCOCc1nc2c(c(N(C)Cc3ccsc3)n1)CCNCC2 | -3.56
58 | COc1cccc2c(=O)n(Cc3cc(C4CC4)[nH]n3)cnc12 | 0.602
59 | COCCN(Cc1sccc1C)Cc1nccn1CCOC | -4.3
60 | COC[C@]1(O)CCN(Cc2c[nH]c(CC3CCCC3)n2)CC1(C)C | 30.4
61 | CC(O)CN1CCc2[nH]nc(C(c3ccccc3)c3ccccc3)c2C1 (centres undefined) | -5.7
62 | O=C1C[C@H]2CC[C@@H](CN1)N2c1cc(-c2ccccc2F)nc2ccnn12 | -4
63 | CCc1nc(C)c(-c2nccn2CC2CC(=O)N(CC)C2)[nH]1 (centres undefined) | 1.63
64 | Cc1ccc([C@H]2CN(CCO)C[C@@H]2NC(=O)CN2CCCCC2=O)o1 | -11
65 | Cc1n[nH]c(C)c1CCN(C)C(=O)c1ccc(CCC(C)(C)O)cc1 | -3.14
66 | Cc1ncsc1CN1CCn2nc(CCC(=O)N3CCCC3)cc2C1 | -6.96

Row | SMILES | cytotoxicity at 70.5 h [%]
67 | CCc1cc(NCc2cc(CC(C)C)on2)n2nccc2n1 | -2.02
68 | Cc1ncsc1CCN(C)C(=O)CN1CC2(CCCC2)CC1=O | -15
69 | Cc1csc(CCNC(=O)C2CCCN(C3CCOCC3)C2)n1 (centres undefined) | -11.1
70 | Cc1nc2c(c(NCC(c3ccccc3C)N(C)C)n1)CCNC2 (centres undefined) | 25.9
71 | COc1cc(-c2nccn2CCn2cccn2)cc2c1OCO2 | -1.97
72 | Cc1ccc(C(C(=O)NCc2n[nH]c(N)n2)N(C)C)cc1 (centres undefined) | -5.83
73 | Cc1cc(C)n2nc(CC(=O)N3CC[C@H]4NCCC[C@]4(CO)C3)nc2n1 | -3.3
74 | CCn1c(-c2ccccc2)nn(CC(=O)NCCc2ccc(C)o2)c1=O | -0.836
75 | CC(O)c1cccc(N2CCC3(CCC(=O)N(C4CCCC4)C3)CC2)n1 (centres undefined) | -2.86
76 | CCOC(=O)CNc1nc(C(C)(C)C)nc2c1cnn2C | 1.33
77 | CCC(CC)N(Cc1ccc2c(c1)OCO2)C(=O)c1ccc(=O)n(C)c1 | -1.82
78 | O=C1NC2(CCN(C(=O)c3ccc(Cl)cc3)CC2)CC1c1ccccc1 (centres undefined) | 20.8
79 | Cc1cc(F)ccc1-c1cc(NCCO)nc2[nH]ccc12 | 0.963
80 | CCCN1CCCC2(CCN(c3nc(C)nc4ccsc34)C2)C1=O (centres undefined) | -3.49
81 | CCc1ccc(OCCN(C)C(=O)c2ccncc2Cl)cc1 | -5.33
82 | Cc1nnc(CCNC(=O)C(c2ccc(F)cc2)N(C)C)[nH]1 (centres undefined) | 25
83 | Cn1ncc2c(N3CCCC(C)(O)C3)nc(-c3cccnc3)nc21 (centres undefined) | 9.87
84 | CCc1nc(N2CCC3(CC2)[C@H](O)C[C@@H]3O)ncc1C | -5.93
85 | CN(Cc1nncn1C)c1nccc(C2CCCC2)n1 | 6.4
86 | CCOc1ccc(CN2CCC3(CC2)CNC(=O)C3)cn1 | -1.37
87 | Cc1nc(COC[C@@H]2CCC[C@@]23CNCCO3)cs1 | 15.5
88 | Cc1nc(COC[C@@H]2CC[C@H]3[C@H](CCN3c3ncccn3)O2)cs1 | -7.79

Row | SMILES | cytotoxicity at 70.5 h [%]
89 | O=S1(=O)c2ccccc2C2(CCN(Cc3ccccc3)C2)N1CC1CC1 (centres undefined) | -5.62
90 | CC(=O)N1CCC2(CC1)COCCN2Cc1ccc(F)cc1 | -0.157
91 | O=C1[C@H]2CN(CC3CC3)C[C@H]2CN1c1ccsc1 | -3.2
92 | Cn1cc(N2CCC3(CCN(Cc4nccs4)C3)C2=O)cn1 (centres undefined) | -12.1
93 | COc1ccc(CN2C[C@H]3CN(c4ccsc4)C(=O)[C@H]3C2)cc1 | -20.7
94 | O=C1CC2(CCN(Cc3ccccn3)C2)CN1c1cncnc1 (centres undefined) | -16.1
95 | O=C(c1ccno1)N1CC[C@@H]2O[C@@H](COCCN3CCCC3)CC[C@@H]21 | -17.9
96 | O=C(c1cscn1)N1CCC2(CCN(Cc3cccs3)CC2)C1 | -6.38
97 | c1nc2c(c(C3CC3)n1)CCN(CC1CCOC1)CC2 (centres undefined) | -13.3
98 | CNC(=O)[C@@]12CCO[C@@H]1CCN(S(=O)(=O)c1cccnc1)C2 | -13.7
99 | O=C(NCC1COCc2c(-c3cccnc3)nnn2C1)c1cccs1 (centres undefined) | -15.7
100 | Cc1ccc(N2CC[C@H]3O[C@@H](C(=O)NCc4ccco4)CC[C@H]32)nn1 | -4.81
101 | Cc1noc(C)c1CN1CC[C@H]2OCC[C@@]2(C(=O)N2CCCO2)C1 | -7.09
102 | O=c1cccnn1CC1CN(Cc2ccsc2)Cc2nccn2C1 (centres undefined) | 0.993
103 | O=C(Nc1ccccc1)N1CCn2nnc(COc3cccnc3)c2C1 | 1.76
104 | Cc1ccc(N2CCO[C@H]3CN(Cc4cnn(C)c4)C[C@H]32)nn1 | -19.2
105 | Cc1ccc(N2CCO[C@H]3CN(CC4CC4)C[C@H]32)nn1 | -13.4
106 | CN(C)CC1CN(Cc2ccc3c(c2)OCO3)Cc2nccn2C1 (centres undefined) | 27.2
107 | O=C(c1ccccn1)N1Cc2nccn2CC(CN2CCOCC2)C1 (centres undefined) | -10.3
108 | CN(C)CC1CN(Cc2ccsc2)Cc2nccn2C1 (centres undefined) | -0.272
109 | c1ccc(CN2CC[C@]3(C[C@@H](Oc4ccccn4)CO3)C2)nc1 | 19.9
